In the experiment the test system is Plasmodium berghei. The experiment can be described thus: Luciferase/luciferin-expressing antifolate-resistant parasites were used to infect a culture of HepG2 cells that were pre-incubated with compounds. Infected hepatocytes emit light due to the luciferase reaction. Assay results are presented as the percent inhibition of light emission compared to control. […]. The format is functional. The note with it: sporozoite; for IC50: read-out: LUCIFERASE INFECTION ASSAY - IC50; for IC90: read-out: LUCIFERASE INFECTION ASSAY - IC90.

On to `Cc1ccc(NC(=O)c2ccc(Cl)c(NC(=O)c3cccs3)c2)cc1`, for which the 50% inhibitory concentration (IC50) is above 8.9 µM and the concentration for an effect of 90% (IC90) is above 8.9 µM.
`Cc1ccc(CSc2nnc(-c3ccccc3N)c(O)n2)cc1`: the IC50 is above 10.2 µM and the IC90 is above 10.2 µM.
As for `Brc1ccc(CNc2ccc3ncccc3c2)cc1`, the IC50 was above 10.5 µM and the IC90 is above 10.5 µM.
As for `COc1cc2c(cc1NC(=O)c1cccc(F)c1)CCCC2`, the half-inhibitory concentration (IC50) was 4.59 µM and the IC90 was above 11 µM.
Taken in the same sequence, the figures for `CCOc1ccccc1NC(=O)CN(C)S(=O)(=O)c1ccc(OC)c(C)c1` were above 8.41 µM and above 8.41 µM.
As to `O=C1c2cccnc2C(=O)N1Cc1ccc2c(c1)OCO2`, the IC50 is above 11.7 µM and the concentration for an effect of 90% (IC90) was above 11.7 µM.
In the case of `O=C(Nc1ccc(F)cc1)c1ccc(CN2CCc3ccccc3C2)cc1`, the IC50 is above 9.16 µM and the IC90 is above 9.16 µM.
Regarding `CC1CCN(CC(O)COC2CC(C)CC(C)(C)C2)CC1` (centres undefined), the IC50 was above 9.88 µM and the IC90 is above 9.88 µM.
On to `CC1CCC(C(C)C)C(OCC(O)CN2C(C)CCCC2C)C1` (centres undefined), for which the IC50 is above 9.12 µM and the IC90 was above 9.12 µM.
For the molecule `COc1cccc(C(=O)Nc2nc3ccc(C)cn3c2C(=O)NCC(C)C)c1`, the IC50 was found to be 2.62 µM and the IC90 was found to be 4.69 µM.
For `CCC(C)NC(=O)c1c(NC(=O)c2ccc(F)cc2F)nc2ccc(C)cn12` (centres undefined), the IC50 was 2.9 µM and the IC90 was determined as 3.23 µM.
Taken in the same sequence, the figures for `Cc1ccc(NC(=O)CSc2ccc(Nc3ccc(C)cc3)nn2)cc1` were above 9.05 µM and above 9.05 µM.
Regarding `CCOC(=O)C1=C(Nc2cccc(Cl)c2)S/C(=C\c2ccc(C)cc2)C1=O`, the IC50 was above 8.25 µM and the IC90 was above 8.25 µM.
In the case of `Cc1ccc2nc(NC(=O)c3cccc(F)c3)c(C(=O)NC3CCCC3)n2c1`, the IC50 stood at 0.886 µM and the IC90 came to 1.08 µM.
Taken in the same sequence, the figures for `CCCCNC(=O)c1c(NC(=O)c2ccc(OC)cc2)nc2c(C)cccn12` were above 8.67 µM and above 8.67 µM.
Regarding `CCC(CC)CN1C[C@H](OCc2ccccc2)C[C@H]1C(=O)NC(c1ccccc1)c1ccccc1`, the IC50 is above 7.01 µM and the IC90 was above 7.01 µM.
As to `CCSc1ccccc1C(=O)Nc1ccc(C(=O)OC)cc1`, the IC50 was above 10.5 µM and the IC90 was above 10.5 µM.
`Cc1ccc2nc(NC(=O)c3ccc(Cl)cc3)c(C(=O)NCC(C)C)n2c1`: the IC50 was found to be 2.76 µM and the IC90 stood at 2.91 µM.
The like results for `O=C(Nc1cccc(Cl)c1)OCc1ccccc1F` were, in that order, above 11.8 µM and above 11.8 µM.
Taken in the same sequence, the figures for `COc1cccc(CC(=O)Nc2nc3ccc(C)cn3c2C(=O)NC2CCCC2)c1` were above 8.12 µM and above 8.12 µM.
For `CCCCNC(=O)c1c(NC(=O)c2ccc(F)cc2)nc2ccc(C)cn12`, the IC50 worked out at 2.67 µM and the IC90 is 3.28 µM.
The like results for `CC1=NN(c2ccc(C)c(Cl)c2)C(=O)/C1=C\c1ccc2c(c1)OCO2` were, in that order, above 9.3 µM and above 9.3 µM.
In the case of `Cc1ccc(CC2CC(=O)N(C3CCCCC3)C2=O)cc1` (centres undefined), the IC50 is above 11.6 µM and the IC90 was above 11.6 µM.
Take `Cc1cccc(C(=O)Nc2sc3c(c2C(=O)N2CCCCC2)CCCCC3)c1`: the IC50 was determined as 0.805 µM and the IC90 is 6.3 µM.
In the case of `O=C(Nc1ccc(Cl)c(Cl)c1)Nc1ccc2c(c1)OCCO2`, the IC50 was above 9.73 µM and the IC90 was above 9.73 µM.
Consider `COCCN1C=C(C(=O)OC)C(c2cccc(O)c2)C(C(=O)OC)=C1`, for which the half-maximal inhibitory concentration (IC50) was above 9.5 µM and the concentration for an effect of 90% (IC90) was above 9.5 µM.
In the case of `COc1ccc(CN2C(=O)N(CC(C)C)C3(CCN(Cc4c[nH]c5ccccc45)CC3)C2=O)cc1`, the IC50 came out at 6.77 µM and the IC90 was above 6.95 µM.
The like results for `CCCN(CCC(=O)Nc1cccc(Cl)c1)CC1CC1` were, in that order, above 11.2 µM and above 11.2 µM.
Taken in the same sequence, the figures for `CC(C)c1ccc(OCC(=O)Nc2ccccc2C(F)(F)F)cc1` were above 9.78 µM and above 9.78 µM.
For `Cc1ccc2nc(NC(=O)C3CCCC3)c(C(=O)NC3CCCC3)n2c1`, the IC50 is above 9.31 µM and the 90% effect concentration (IC90) was above 9.31 µM.
Regarding `COCCNc1nc(-c2ccc(Cl)cc2)nc2ccccc12`, the IC50 was above 10.5 µM and the IC90 was above 10.5 µM.
Turning to `CCOC(=O)c1ccc2c(c1)C1C=CCC1C(c1cccnc1)N2` (centres undefined), the IC50 was above 10.3 µM and the IC90 is above 10.3 µM.
On to `Cc1ccc2nc(NC(=O)c3ccc(C(F)(F)F)cc3)c(C(=O)NC3CCCC3)n2c1`, for which the IC50 is 0.593 µM and the concentration for an effect of 90% (IC90) turned out to be 1.95 µM.
Taken in the same sequence, the figures for `Cc1ccccc1OCCOC(=O)Nc1ccccc1` were above 12.2 µM and above 12.2 µM.
The like results for `Cc1ccc(C(C)(C)CC(C)NCc2ccc(Cl)cc2)o1` (centres undefined) were, in that order, above 10.8 µM and above 10.8 µM.
Taken in the same sequence, the figures for `CCOc1ccc(C2NC(=O)NC(C)=C2C(=O)OCC2CCCO2)cc1OC` (centres undefined) were above 8.45 µM and above 8.45 µM.
Regarding `COCCNCCOc1ccc(OCc2ccccc2)cc1`, the IC50 was above 10.9 µM and the IC90 is above 10.9 µM.
As for `CCCCNC(=O)c1c(NC(=O)c2c(F)cccc2F)nc2ccc(C)cn12`, the IC50 came out at 5.12 µM and the IC90 stood at 6.69 µM.
The like results for `Cc1ccc2nc(NC(=O)c3cccc(Cl)c3Cl)c(C(=O)NC3CCCC3)n2c1` were, in that order, above 7.65 µM and above 7.65 µM.
The like results for `CC(C)CN(CC(C)C)CC(O)COc1ccccc1` (centres undefined) were, in that order, above 11.8 µM and above 11.8 µM.
`Cc1cccn2c(C(=O)NC3CCCCC3)c(NC(=O)c3cccc(F)c3)nc12`: the IC50 is above 8.37 µM and the concentration for an effect of 90% (IC90) is above 8.37 µM.
For `CCCNC(=O)c1c(NC(=O)c2cccc(Cl)c2Cl)nc2ccc(C)cn12`, the IC50 was above 8.14 µM and the IC90 was above 8.14 µM.
On to `CCCNC(=O)c1c(NC(=O)c2cccc(F)c2)nc2ccccn12`, for which the IC50 was 4.52 µM and the IC90 worked out at 7.76 µM.
As to `Fc1ccc(CN2CCN(Cc3ccco3)CC2)cc1`, the IC50 is above 12 µM and the IC90 is above 12 µM.
As for `Cc1ccc(Cn2nnc(-c3ccccc3C)n2)cc1`, the IC50 was above 12.5 µM and the concentration for an effect of 90% (IC90) was above 12.5 µM.
Consider `O=C(Nc1nc2ccccn2c1C(=O)NC1CCCC1)c1ccc(F)cc1F`, for which the IC50 came to 2.94 µM and the IC90 turned out to be 3.49 µM.
Taken in the same sequence, the figures for `O=C(Nc1nc2ccccn2c1C(=O)NC1CCCC1)c1ccc(F)cc1` were above 9.01 µM and above 9.01 µM.
Taken in the same sequence, the figures for `Cc1ccc2nc(NC(=O)c3ccccc3)c(C(=O)NC3CCCC3)n2c1` were 3.06 µM and 3.58 µM.
The like results for `Cc1ccc(C)c(OCC(O)CN2CCc3ccccc3C2)c1` (centres undefined) were, in that order, above 9.49 µM and above 9.49 µM.
For the molecule `CCc1c(C)[nH]c2c(-c3ccc(Cl)cc3)cnn2c1=O`, the IC50 is 5.93 µM and the IC90 is 11 µM.
`O=C(c1ccco1)N(Cc1nccs1)c1ccc(-c2ccccc2)cc1`: the IC50 was above 9.16 µM and the IC90 is above 9.16 µM.
For the molecule `O=C(COCc1ccccc1)Nc1nc2ccccn2c1C(=O)NC1CCCCC1`, the IC50 was above 8.12 µM and the IC90 is above 8.12 µM.
On to `CCCNC(=O)c1c(NC(=O)c2cccc(C(F)(F)F)c2)nc2ccccn12`, for which the IC50 was found to be 0.399 µM and the IC90 came to 0.786 µM.
The like results for `CCOc1ccc(NC(=O)CCOc2cccc(C)c2)cc1` were, in that order, above 11 µM and above 11 µM.
Taken in the same sequence, the figures for `CCOc1ccccc1C(=O)NCCc1cccc(Cl)c1` were above 10.9 µM and above 10.9 µM.
Taken in the same sequence, the figures for `CCCCNC(=O)c1c(NC(=O)c2ccccc2C)nc2ccc(C)cn12` were 6.48 µM and above 9.05 µM.
Turning to `CCCCNC(=O)c1c(NC(=O)c2cccc(F)c2)nc2ccc(C)cn12`, the half-maximal inhibitory concentration (IC50) amounted to 1.29 µM and the IC90 stood at 2.84 µM.
For `C=CCNC(=O)CN(c1ccc(Br)cc1)S(C)(=O)=O`, the IC50 was above 9.5 µM and the 90% effect concentration (IC90) is above 9.5 µM.
With `Cc1[nH]c2c(-c3ccccc3)c(C(F)(F)F)nn2c(=O)c1Cc1ccccc1`, the IC50 was 7.44 µM and the concentration for an effect of 90% (IC90) is above 8.61 µM.
With `Cc1cccn2c(C(=O)NC(C)C)c(NC(=O)c3cccc(C(F)(F)F)c3)nc12`, the IC50 is above 8.16 µM and the IC90 is above 8.16 µM.
On to `Cc1c(Cl)cccc1-c1ccc(C(=O)NCc2ccco2)o1`, for which the IC50 was above 10.5 µM and the IC90 was above 10.5 µM.
In the case of `CCc1ccccc1N(CC(=O)NCC(C)C)S(=O)(=O)c1ccc(C)cc1`, the IC50 is above 8.49 µM and the IC90 is above 8.49 µM.
Consider `CC1=C(C(=O)OCc2ccccc2)C(c2ccc(C(F)(F)F)cc2)CC(=O)N1` (centres undefined), for which the IC50 was above 8.48 µM and the concentration for an effect of 90% (IC90) is above 8.48 µM.
Consider `CCOc1cc(/C=C/c2ccc3cccc(O)c3n2)cc(Br)c1O`, for which the IC50 was found to be 3.28 µM and the IC90 worked out at 3.78 µM.
For `CN(C)C(=O)N1CCC(C(=O)N2CC(=O)N(C3CCCCC3)CC(OCc3ccncc3)C2)CC1` (centres undefined), the 50% inhibitory concentration (IC50) is above 6.8 µM and the IC90 is above 6.8 µM.
For `CCC(C)NC(=O)c1c(NC(=O)c2ccc(Cl)cc2)nc2ccc(C)cn12` (centres undefined), the IC50 came to 2.58 µM and the concentration for an effect of 90% (IC90) came out at 3.02 µM.
Consider `COc1cccc(CC(=O)N2C[C@H](OC)C[C@H]2C(=O)NCC2CCCCC2)c1`, for which the IC50 was above 8.49 µM and the IC90 was above 8.49 µM.
Take `Cc1ccc2nc(NC(=O)COCc3ccccc3)c(C(=O)NC3CCCCC3)n2c1`: the IC50 is above 7.85 µM and the IC90 is above 7.85 µM.
For the molecule `CCCCNC(=O)c1c(NC(=O)c2cccc(F)c2F)nc2ccccn12`, the half-inhibitory concentration (IC50) is above 8.86 µM and the 90% effect concentration (IC90) was above 8.86 µM.
Turning to `COc1ccc(CNCc2ccc3ccccc3c2)cc1`, the IC50 was above 11.9 µM and the IC90 was above 11.9 µM.
Consider `COc1ccc(C2CC(=O)Nc3ccc4ccccc4c32)c(OC)c1OC` (centres undefined), for which the IC50 was above 9.08 µM and the IC90 was above 9.08 µM.
With `CCCCNC(=O)c1c(NC(=O)c2cccc(OC)c2)nc2ccc(C)cn12`, the IC50 came to 2.79 µM and the IC90 was 3.2 µM.

These data come from ChEMBL document CHEMBL4483862, “Open-source discovery of chemical leads for next-generation chemoprotective antimalarials” (2018).
